By EC50 is commonly meant the concentration at which the effect is half-maximal. By Papp A→B is commonly meant how fast a substance crosses the layer from the apical side. As usually defined, the solubility is the concentration that dissolves in the medium under given conditions. A word on the CC50: it is the concentration at which the toxic effect on the cells reaches its halfway point. Read a low CC50 as harm at low concentration.

Structures are written as SMILES. Values after ≈ are worked out from the molar mass of the structure shown. Like-named read-outs stand apart in the source and are kept apart here.

One series concerns HIV-1 HXB2. In words: MT-4 antiviral cytopathic effect assay, HXB2 wild-type virus. The class given is cell-based. The note with it: Human immunodeficiency virus 1, MT4; HIV-1 HXB2 wild-type, MT-4 cells; read-out: EC50 HXB2. How it is done: (§1) The prepared compounds were tested for their anti-HIV-1 activity (Table 1). A viral cytopathic effect assay in MT-4 cells with HIV-1 IIIB virus was used to determine compound potency (EC50, 50% cell viability) in protecting virus induced cell killing. Compound cytotoxicity was assessed in MT-4 cells in the absence of virus (CC50, 50% cytotoxicity).
(§2) Compounds were tested in a high-throughput 384-well assay format for their ability to inhibit the virus replication-induced cytopathic effect in MT-4 cell cultures acutely infected with HIV-1 (IIIB strain), HXB2, HXB2-K103N, and HXB2-Y181C. Compounds were serially diluted (1:3) in DMSO on 384-well polypropylene plates and further diluted 200-fold into complete RPMI media (10% FBS, 1% P/S) using Biotek Micro Flow and an Agilent ECHO acoustic dispenser. Each plate contained up to eight test compounds, with negative (no drug control) and 5 μM AZT positive controls. MT-4 cells were further diluted in complete RPMI media and added to each plate using a Micro-Flo dispenser. After five days of incubation in a humidified and temperature-controlled incubator (37 °C), Cell Titer Glo (Promega) was added to the assay plates to quantify the amount of […]. EC50 and CC50 values were defined as the compound concentration that causes a 50% decrease in luminescence signal and were calculated using a sigmoidal dose-response model to generate curve fits.
In general terms: Cytopathic effects are the visible damage that an infection or toxin causes in cultured cells.

The nature of series [1]: MDCK permeability assay (A to B). Type of series: in vitro ADME, Canine. The following applies: dog, MDCK. An excerpt:
Compounds were further tested in a Madin–Darby Canine Kidney (MDCK) assay to evaluate their potential for oral absorption. […] Additionally, there was no trend for better permeability when comparing arm I versus arm II when matched with the same core. The size of the B ring had the greatest influence on Papp with the trend being five-membered > six-membered > seven-membered rings (Table 1).
cMdr1-KO cells were maintained in Dulbecco’s modified Eagle’s medium (DMEM) with sodium pyruvate and GlutaMax, supplemented with 1% Pen/Strep and 10% fetal bovine serum in an incubator set at 37 °C, 90% humidity, and 5% CO2. MDCKII- cMdr1-KO cells were grown to confluence over 3 days on 96-well PET plates with 1 μm pore size, polyester membrane (Corning 3392). Experiments were run using HBSS donor buffer from Invitrogen containing an additional 10 mM HEPES, 15 mM glucose, and 0.1% BSA adjusted to pH 7.4. The receiver well had HBSS buffer supplemented with 1% BSA, 10 mM HEPES, 15 mM glucose, and the pH was adjusted to 7.4. TEER values were read to test membrane integrity at the beginning of the assay. The experiment was started by the addition of dosing solutions containing test compounds. Samples were taken from the donor compartment at 0/120 min and from the receiver compartment at 120 min. Each compound was tested in two separate replicate wells. All samples were immediately collected in a 72:8:20 MeCN/MeOH:H2O mix to precipitate protein and stabilize the test compounds. Cells were dosed on the apical side to determine forward (A to B) permeability. To test for non-specific binding and compound instability, the total amount of drug was quantified at the end of the experiment and compared to the material present in the original dosing solution as a percentage of recovery. Samples were analyzed by RF-QToF.

The test system of the next series is HIV-1 HXB2 Y181C variant. Kind of series: MT-4 antiviral cytopathic effect assay, HXB2-Y181C. Type of series: cell-based. How it is done: (§3) The prepared compounds were tested for their anti-HIV-1 activity (Table 1). A viral cytopathic effect assay in MT-4 cells with HIV-1 IIIB virus was used to determine compound potency (EC50, 50% cell viability) in protecting virus induced cell killing. Compound cytotoxicity was assessed in MT-4 cells in the absence of virus (CC50, 50% cytotoxicity). […] ETV contains bromo and amino substitutions on the DAPY core. […] Likely, with the smaller cyano arm I in 1, 3, and 5, the cores could be further elaborated to optimize the compound position in the pocket and to improve potency.
as §2

In the next series the test system is HIV-1 HXB2 K103N variant. In words: MT-4 antiviral cytopathic effect assay, HXB2-K103N. Type of series: cell-based. How it is done: as §3, §2
A short description of series [2]: Predicted clearance in human liver microsomes. Type of series: in vitro ADME. The following applies: pH 7.4, 1 μM compound, read-out: HLM CLint, pred (converted). How it is done: Next, microsome stability was profiled in purified human liver microsomes (HLM).
Metabolic stability of compounds was assessed using HLM (Corning cat. 457117).[52] In this assay, 10 nL compounds at a concentration of 1 mM in 100% DMSO are dispensed into 384-well polypropylene plates using the Echo 550 acoustic liquid dispenser (Labcyte). Each plate contains 384 wells with a single test compound in each well.
A solution of HLM at 2 mg/mL in 100 mM K2HPO4/KH2PO4 pH 7.4 with 0.0225 mg/mL Alamethicin from Trichoderma viride (Sigma-Aldrich cat. A4665-10MG) was incubated on ice for 15 min. 5 μL of this solution was added to individual wells following 15 min incubation at room temperature; and supplemented with 5 μL NADPH Regenerating Solution of cofactors (Corning Gentest UGT Reaction Mix solutions A and B, cat. 451200 and 451220) containing 100 mM K2HPO4/KH2PO4 pH 7.4, 2.6 mM NADP^+, 6.6 mM glucose-6-phosphate, 6.6 mM MgCl2, 0.8 U/mL glucose-6-phosphate dehydrogenase, 0.1 mM sodium citrate, and 6.8 mM uridine diphosphate-glucuronic acid. The final concentration of analyte compounds at the beginning of the reactions was 1 μM. The reactions were incubated at 37 °C, and time points of 0, 5, 15, 30, 40, 50, 60, and 70 min were collected for further analysis. Background data were collected using reactions without analyte compounds.
Upon collection of the reaction time points, samples were quenched at the set time points with 30 μL of a solution of 72% acetonitrile, 8% methanol, 0.1% formic acid, 19.9% water, and labetalol as an internal standard (IS) at a concentration of 650 nM. Reaction plates were span in a centrifuge at a speed of 4000 rcf for 30 min and 4 °C, following a dilution of the 10 μL quenched reaction into 40 μL de-ionized water, yielding assay plates.
Samples were analyzed by a solid-phase extraction coupled with a quadrupole time-of-flight mass spectrometer, using an Agilent QToF 6530 RapidFire 360 system with C4 type A solid state cartridges. Analysis was performed in either positive or negative ionization modes. Mobile phases contained 0.1% formic acid in water for loading analytes onto solid state extraction cartridges, and 0.1% formic acid in acetonitrile for elution into the mass spectrometer in positive ionization mode, or 0.1% acetic acid in water for loading and 0.1% acetic acid in acetonitrile for extraction in negative ionization mode. Peak-area ratios of integrated counts for individual compounds to IS were plotted as a semi-logarithmic chart of log versus time. Initial, linear portion of decay was fitted to a linear regression equation to derive the half-time of a compound decay.
Pharmacological parameters for an analyte compound metabolism were calculated using the equations described in Table S2.
Table S2. Pharmacological parameters for an analyte compound metabolism were
calculated using the following equations:
Intrinsic Clearance (in Cl = ln 2
int, in vitro T1/2 ∗ Conc
Intrinsic Clearance Cl = Clint, in vitro ∗ Liver Mass ∗ Yield
Predicted Hepatic Cl = Clint ∗ QH
QH (Hepatic Blood Flow) = 1.3 L/hr/kg

Series [3] can be described thus: Solubility assessment, shake-flask method. The class given is physicochemical. The note with it: for solubility: shake-flask. How it is done: Compound solubility was measured at Analiza (Cleveland, OH) by the standard shake-flask method at pH 1.2 and 7.4 and quantitated by HPLC-UV.
Series [4] can be described thus: Solubility assessment, shake-flask method. Type of series: physicochemical. The following applies: compared to the other compounds, in words.
The subject of a further series is HIV-1 (IIIB strain). In words: MT-4 antiviral cytopathic effect assay, HIV-1 IIIB. The class given is cell-based. The following applies: HIV-1 IIIB, WT, read-out: EC50 MT4. How it is done:
as §1, §2

The next series can be described thus: in vitro. Type of series: cell-based. The note with it: human. How it is done:
as §3, §2

The mark [5] stands for this setting: supplement CSV, fold change vs HXB2.

Turning to `Cc1cc(/C=C/C#N)cc(C)c1N1CC(=O)Nc2cnc(Nc3ccc(C#N)cc3)nc21` [Compound 4, 4-[(8-{4-[(1E)-2-Cyanoeth-1-en-1-yl]-2,6-dimethylphenyl}-6-oxo-5,6,7,8-tetrahydropteridin-2-yl)amino]benzonitrile], the EC50 in the series with HIV-1 HXB2 was 2.4 nM; with HIV-1 HXB2 Y181C variant (Human immunodeficiency virus 1, HXB2, read-out: EC50 Y181C) it was 4.9 nM; in the series on HIV-1 HXB2 K103N variant (Human immunodeficiency virus 1, HXB2, read-out: EC50 K103N) it was 2.8 nM; in the series on HIV-1 (IIIB strain) (Human immunodeficiency virus 1, IIIB, MT4, protects 50% of MT-4 cells against HIV-1-induced cell killing), 2.6 to 3 nM; with HIV-1 (IIIB strain) (protects 50% of MT-4 cells against HIV-1-induced cell killing) it was 2.7 nM. The Papp A→B at 120 min is 4.2 ×10⁻⁶ cm/s in series [1] (supplement CSV) and 4.2 ×10⁻⁶ cm/s in series [1] (apparent permeability coefficient, A to B, pH 7.4). For the same compound, the “Y181C (FC)” value in the series with HIV-1 HXB2 Y181C variant (fold change: ratio of potency against HXB2 Y181C and parental HXB2) came out at 2.0; in the series on HIV-1 HXB2 Y181C variant (setting [5]), 2.0. Moreover, the “K103N (FC)” value in the series on HIV-1 HXB2 K103N variant (fold change: ratio of potency against HXB2 K103N and parental HXB2) is 1.2; in the series with HIV-1 HXB2 K103N variant (setting [5]) it was 1.2. Also, in [2], the CLint scaled at 1.167 h, 1 µM was 16.3 mL/min/kg. Moreover, the solubility in [3] (HCl, pH 1.2, read-out: solubility HCl) is 6.5 µM (≈ 2.74 µg/mL); in series [3] (phosphate-buffered saline, pH 7.4, read-out: solubility PBS), 1.8 µM (≈ 0.759 µg/mL). This compound gave an HCl sol in series [3] (supplement CSV) of 6.5 µM. Further, the PBS sol in series [3] (supplement CSV) worked out at 1.8 µM. Besides, the “solubility at pH 2” value in series [4] was “markedly reduced”. This compound also gave a half-maximal cytotoxic concentration (CC50) at 120 h in “in vitro” of 42400 nM.

(Values after article PMC10017027, “Design and Synthesis of Novel HIV-1 NNRTIs with Bicyclic Cores and with Improved Physicochemical Properties” (Journal of Medicinal Chemistry, 2023).)
